Values of other authors as cited in patent US20070117837A1, “Process for the preparation of amorphous form of a platelet aggregation inhibitor drug” (EGIS GYOGYSZERGYAR RT., priority 2003, published 2007).

Conditions: amorphous form compared with its morphologically uniform crystalline forms

## CC(C)c1c(C(=O)Nc2ccccc2)c(-c2ccccc2)c(-c2ccc(F)cc2)n1CC[C@@H](O)C[C@@H](O)CC(=O)O [atorvastatine calcium]
  biological availability: better
